Active and inactive are the calls of the source. The calls are words filed in the database; no cut-off is given here.
Assays:
Format in all cases: functional, organism-based
Oryza sativa [1] = assay: Induction of disease resistance in Oryza sativa Nipponbare (rice) assessed as increase in sakuranetin level in press-injured leaves at 0.1% after 48 hr by HPLC-MS-MS analysis
Oryza sativa [2] = assay: Induction of disease resistance in Oryza sativa Nipponbare (rice) assessed as increase in momilactone level in uninjured leaves at 0.5 mM pretreated with water 24 hr prior to compound treatment measured after 8 to 10 hr by HPLC-MS-MS analysis relative to control
Oryza sativa [3] = assay: Induction of disease resistance in Oryza sativa Nipponbare (rice) assessed as increase in sakuranetin level in press-injured leaves at 0.5 mM pretreated with water 24 hr prior to compound treatment measured after 8 to 10 hr by HPLC-MS-MS analysis relative to control
Oryza sativa [4] = assay: Induction of disease resistance in Oryza sativa Nipponbare (rice) assessed as increase in jasmonic acid level in press-injured leaves at 0.5 mM after 1 to 2 hr by HPLC-MS-MS analysis relative to control
Oryza sativa [5] = assay: Induction of disease resistance in Oryza sativa Nipponbare (rice) assessed as increase in sakuranetin level in uninjured leaves at 0.5 mM pretreated with water 24 hr prior to compound treatment measured after 8 to 10 hr by HPLC-MS-MS analysis relative to control
Oryza sativa [6] = assay: Induction of disease resistance in Oryza sativa Nipponbare (rice) assessed as increase in jasmonic acid level in press-injured leaves at 0.5 mM pretreated with water 24 hr prior to compound treatment measured after 6 hr by HPLC-MS-MS analysis relative to control
Oryza sativa [7] = assay: Induction of disease resistance in Oryza sativa Nipponbare (rice) assessed as increase in momilactone level in press-injured leaves at 0.5 mM pretreated with water 24 hr prior to compound treatment measured after 8 to 10 hr by HPLC-MS-MS analysis relative to control
Oryza sativa [8] = assay: Induction of disease resistance in Oryza sativa Nipponbare (rice) assessed as increase in momilactone level in press-injured leaves at 10 mM after 48 hr by HPLC-MS-MS analysis
Oryza sativa [9] = assay: Induction of disease resistance in Oryza sativa Nipponbare (rice) assessed as increase in sakuranetin level in press-injured leaves at 10 mM after 48 hr by HPLC-MS-MS analysis

Molecule: N[C@@H](Cc1ccccc1)C(=O)O
- Activity (Oryza sativa [1]): inactive

Molecule: CUPRIC CHLORIDE
- Activity (Oryza sativa [2]): inactive
- Activity (Oryza sativa [3]): Active
- Activity (Oryza sativa [4]): inactive
- Activity (Oryza sativa [5]): inactive
- Activity (Oryza sativa [6]): Active
- Activity (Oryza sativa [7]): Active

Molecule: C[S+](CC[C@H](N)C(=O)[O-])C[C@H]1O[C@@H](n2cnc3c(N)ncnc32)[C@H](O)[C@@H]1O (stereo not given in full)
- Activity (Oryza sativa [1]): inactive

Molecule: O=P(O)(O)CCCl
- Activity (Oryza sativa [8]): inactive
- Activity (Oryza sativa [9]): Active

From ChEMBL document CHEMBL3045938, “Methionine-induced phytoalexin production in rice leaves” (2000)
